For 1 compound, Km results are on record in article PMC10690365, “Improved catalytic performance and molecular insight for lipoxygenase from Enterovibrio norvegicus via directed evolution” (Frontiers in Bioengineering and Biotechnology, 2023).

Structures are written as SMILES. Numbering of substitutions follows the chain as printed.

Assay [1] addresses T1, EnLOX (wild-type, WT); lipoxygenase from Enterovibrio norvegicus (Enterovibrio norvegicus, UniProt A0A1I5T4S6, D95E/T99A/A121H/S142N/N444W/S613G, form not given).
T1 construct: primer-encoded N-terminus MHRKKT
T1 sequence (A0A1I5T4S6 1-726 D95E/T99A/A121H/S142N/N444W/S613G): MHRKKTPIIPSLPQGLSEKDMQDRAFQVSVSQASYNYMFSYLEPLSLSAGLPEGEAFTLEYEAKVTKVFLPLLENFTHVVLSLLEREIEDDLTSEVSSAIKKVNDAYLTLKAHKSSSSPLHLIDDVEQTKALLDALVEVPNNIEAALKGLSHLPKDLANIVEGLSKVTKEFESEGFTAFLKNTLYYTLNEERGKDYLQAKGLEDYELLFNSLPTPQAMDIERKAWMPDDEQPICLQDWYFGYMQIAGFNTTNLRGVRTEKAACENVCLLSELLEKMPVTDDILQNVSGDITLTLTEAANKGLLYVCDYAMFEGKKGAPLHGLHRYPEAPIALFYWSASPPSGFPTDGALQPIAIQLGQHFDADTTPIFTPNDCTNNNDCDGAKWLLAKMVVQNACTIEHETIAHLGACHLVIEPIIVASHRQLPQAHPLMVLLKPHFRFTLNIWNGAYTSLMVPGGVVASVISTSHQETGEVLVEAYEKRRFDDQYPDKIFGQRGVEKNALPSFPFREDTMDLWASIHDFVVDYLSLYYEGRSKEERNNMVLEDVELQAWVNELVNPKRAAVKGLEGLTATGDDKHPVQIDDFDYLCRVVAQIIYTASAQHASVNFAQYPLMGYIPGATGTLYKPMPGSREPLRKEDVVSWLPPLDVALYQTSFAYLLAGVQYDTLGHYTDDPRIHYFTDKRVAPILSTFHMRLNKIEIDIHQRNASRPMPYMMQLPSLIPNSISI
Nature of the assay: absorbance at […] nm (hydroperoxide formation), Michaelis-Menten fit. It counts as biochemical. The conditions noted are these: 20 mM Tris-HCl pH 8.0, 50 °C; substrate range printed as 10 to 300 mM (unit doubtful against the Km); mutant EAHNWG (F-12E); printed nucleotide changes do not fully match the amino acid positions.

Assay [2] addresses T2, EnLOX (wild-type, WT); lipoxygenase from Enterovibrio norvegicus (Enterovibrio norvegicus, UniProt A0A1I5T4S6).
T2 construct: primer-encoded N-terminus MHRKKT
T2 sequence (A0A1I5T4S6 1-726): T1 sequence (A0A1I5T4S6 1-726 D95E/T99A/A121H/S142N/N444W/S613G) with E95D, A99T, H121A, N142S, W444N, G613S
Described as above. It counts as biochemical. As to conditions: 20 mM Tris-HCl pH 8.0, 50 °C; substrate range printed as 10 to 300 mM (unit doubtful against the Km).

Turning to `CCCCC/C=C\C/C=C\CCCCCCCC(=O)O` [linoleic acid], the Km turned out to be 2.36 ± 0.14 µM in assay [1] and 3.49 ± 0.21 µM in assay [2].

As a reminder, the Km is the substrate concentration at which the rate is half of its maximum.
